Measurements reported in PubChem BioAssay AID608 (Sanford-Burnham Center for Chemical Genomics, 2007).
Calls of active or inactive are those of the source. The rule behind the calls is not given here.

Target: Peptidyl-prolyl cis-trans isomerase FKBP1A (Homo sapiens) (UniProt P62942)
Assay: small-molecule binding to FKBP12 – biophysical, NMR detection (AID 608)
Conditions: purified FKBP12

Sequence of Peptidyl-prolyl cis-trans isomerase FKBP1A (Homo sapiens) (P62942 whole entry, looked up): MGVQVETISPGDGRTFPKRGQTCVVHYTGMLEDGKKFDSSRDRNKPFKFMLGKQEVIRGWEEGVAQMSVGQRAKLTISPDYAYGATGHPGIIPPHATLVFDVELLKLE

Kd, inactive:
Cn1c(NCC(=O)O)nc2c1c(=O)[nH]c(=O)n2C > 4 mM
CC(=O)c1nnc2cc(C)nn2c1C > 4 mM
Cc1cc(C(=O)Nc2cccnc2)no1 > 4 mM
CC1(C)CC[C@]2(C(=O)O)CC[C@]3(C)C(=CCC4[C@@]5(C)CC[C@@H](O)C(C)(C)C5CC[C@]43C)C2C1 (some centres not stated) > 4 mM
COC(=O)c1ccc(/C=C2/NC(=S)NC2=O)cc1 > 4 mM
O=[n+]1cc(-c2ccccc2)n([O-])c2c1CCC2 > 4 mM
O=C(c1cc2ccccc2o1)N1CCOCC1
O=C(Nc1ccc2c(c1)OCCO2)c1ccncc1 > 4 mM
O=C(O)CC1Sc2ccccc2NC1=O (configuration not stated) > 4 mM
Cc1cc(C)n(/N=C\c2cccs2)c(=O)c1C(N)=O > 4 mM
CC(=O)/C=C\[C@@H]1[C@@]2(C)CCCC(C)(C)C2CC[C@@]1(C)O (some centres not stated) > 4 mM
c1coc(-c2nc(-c3ccncc3)no2)c1 > 4 mM
Cc1nn(-c2ccccc2)nc1CN > 4 mM
CSc1ccccc1C(=O)N1CCOCC1 > 4 mM
CC(=O)Nc1ccc(-c2nc(C)c(C(C)=O)n2O)cc1 > 4 mM
CC1(C)N([O-])c2cc([N+](=O)[O-])ccc2[N+]1=O > 4 mM
COc1cc(OC)c2c(=O)c(OC)c(-c3ccc(OC)c(OC)c3)oc2c1 > 4 mM
CC(C)Nc1ncnc2c1nnn2C > 4 mM
Nc1ccc(S(=O)(=O)Nc2nccs2)cc1 > 4 mM
COC(=O)c1cccnc1Oc1ccccc1 > 4 mM
Cc1nn(CC(=O)N2CCCCC2)c(=O)c2ccccc12 > 4 mM
OC1CCC(C(F)(F)F)CC1 (configuration not stated) > 4 mM
C[n+]1cc2c3c(ccc2c2ccc4cc5c(cc4c21)OCO5)OCO3 > 4 mM
O=C1CCCN1C(=O)CN1CCOCC1 > 4 mM
O=C(O[C@@H]1Cc2c(O)cc(O)cc2O[C@@H]1c1cc(O)c(O)c(O)c1)c1cc(O)c(O)c(O)c1 > 4 mM
N=C1/C(=C\c2ccccc2)C(=O)N=C2SC=NN12 > 4 mM
Cc1c(N=Cc2ccco2)c(=O)n(-c2ccccc2)n1C > 4 mM
CN(C)C(=S)Nc1ccccc1N1CCOCC1 > 4 mM
NC(=O)c1ccc(NC(=O)C2CC2)cc1 > 4 mM
CCOC(=O)Cn1cnc2sc3c(c2c1=O)CCC3 > 4 mM
O=C(O)c1cc(F)cc2c1OCOC2 > 4 mM
CN(C)C(=O)CSc1nc2ccccc2c(=O)[nH]1 > 4 mM
O=S1(=O)CCC(NCc2ccccc2)C1 (configuration not stated) > 4 mM
NC(=O)Cc1nc(-c2ccccc2)cs1 > 4 mM
OC/C=C/c1ccc(O)c(O)c1 > 4 mM
NC(=O)CSc1nnc(-c2cccnc2)o1 > 4 mM
CC(=O)O[C@H]1CC[C@@]2(C)C(C[C@@H](OC(C)=O)[C@@]3(C)C4=CC(=O)O[C@@H](c5ccoc5)[C@]4(C)CCC23)C1(C)C (some centres not stated) > 4 mM
CN1CCC(NC(=O)C2CCCO2)CC1 (configuration not stated) > 4 mM
COCC(=O)Nc1cc2c3c(c1)CCN3C(=O)CC2 > 4 mM
c1cncc(C(N2CCOCC2)N2CCOCC2)c1 > 4 mM
NC1=NC(=O)/C(=C/c2ccc(O)c(Cl)c2)S1 > 4 mM
Nc1cc(=O)[nH]c(=O)n1Cc1ccco1 > 4 mM
O=C1c2ccccc2C(=O)N1/N=C/c1ccc[nH]1 > 4 mM
CC(=O)c1cccc(NS(=O)(=O)N2CCOCC2)c1
O=c1[nH]c2sc3c(c2c2nncn12)CCCC3 > 4 mM
O=C1COc2ccccc2C(=O)N1 > 4 mM
Cc1ccc(C(=O)N2CCC(C(=O)O)CC2)cc1 > 4 mM
